Measured values from patent publication EP4741386A1 (Jiangsu Yahong Meditech Co., Ltd., priority 2023, dated 2025).

Tests used:
[1] = biological target: T1, Recombinant human His6-USP1/His6-UAF1 complex protein (Homo sapiens, UniProt O94782); experiment: In vitro inhibitory activity against USP1 (Ubiquitin Rhodamine 110 fluorescence detection, 384-well plate); type: biochemical; conditions: Ub-Rho substrate, 1 hour pre-incubation, read after 30 minutes
T1 construct: His6; purchased R&D E-568-050
T1 sequence (O94782 whole entry): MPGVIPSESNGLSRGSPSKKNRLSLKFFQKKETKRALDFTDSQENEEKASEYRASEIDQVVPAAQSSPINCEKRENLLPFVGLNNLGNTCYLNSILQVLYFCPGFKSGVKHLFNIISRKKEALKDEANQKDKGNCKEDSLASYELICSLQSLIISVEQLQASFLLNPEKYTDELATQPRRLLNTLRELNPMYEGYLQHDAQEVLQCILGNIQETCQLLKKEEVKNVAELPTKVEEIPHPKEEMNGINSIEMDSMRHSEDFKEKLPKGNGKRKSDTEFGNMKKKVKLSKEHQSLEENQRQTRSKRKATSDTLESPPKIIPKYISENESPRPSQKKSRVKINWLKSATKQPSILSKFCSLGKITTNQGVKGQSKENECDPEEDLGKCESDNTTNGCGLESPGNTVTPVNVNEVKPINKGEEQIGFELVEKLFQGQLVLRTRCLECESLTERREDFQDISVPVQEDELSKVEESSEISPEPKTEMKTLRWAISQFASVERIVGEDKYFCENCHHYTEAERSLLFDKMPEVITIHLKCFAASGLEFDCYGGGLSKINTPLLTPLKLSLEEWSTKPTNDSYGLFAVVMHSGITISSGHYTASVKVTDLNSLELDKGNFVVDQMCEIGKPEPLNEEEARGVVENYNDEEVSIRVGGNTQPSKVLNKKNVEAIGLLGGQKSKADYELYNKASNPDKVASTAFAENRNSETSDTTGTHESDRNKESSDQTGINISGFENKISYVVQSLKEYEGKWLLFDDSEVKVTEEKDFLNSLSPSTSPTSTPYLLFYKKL
T1 sequence (Q8TAF3 whole entry partner): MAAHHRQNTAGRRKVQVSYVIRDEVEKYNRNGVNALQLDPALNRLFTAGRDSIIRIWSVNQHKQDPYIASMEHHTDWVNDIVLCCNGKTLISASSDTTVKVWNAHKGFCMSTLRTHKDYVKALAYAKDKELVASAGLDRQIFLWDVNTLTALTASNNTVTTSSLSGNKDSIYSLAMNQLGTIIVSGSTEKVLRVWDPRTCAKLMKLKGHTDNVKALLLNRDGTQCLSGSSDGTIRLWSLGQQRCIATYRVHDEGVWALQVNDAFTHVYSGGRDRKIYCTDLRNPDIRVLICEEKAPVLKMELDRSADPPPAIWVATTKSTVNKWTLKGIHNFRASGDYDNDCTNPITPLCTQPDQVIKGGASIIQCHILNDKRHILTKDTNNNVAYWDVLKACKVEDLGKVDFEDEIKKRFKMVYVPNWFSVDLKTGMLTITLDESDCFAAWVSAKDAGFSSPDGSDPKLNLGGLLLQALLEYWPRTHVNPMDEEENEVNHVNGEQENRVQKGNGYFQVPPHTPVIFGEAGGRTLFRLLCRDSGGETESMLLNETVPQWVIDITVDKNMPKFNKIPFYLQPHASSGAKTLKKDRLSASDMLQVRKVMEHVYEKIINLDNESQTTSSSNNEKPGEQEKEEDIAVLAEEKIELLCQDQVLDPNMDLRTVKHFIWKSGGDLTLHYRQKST
Summary of the method: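 Compounds, kept as 50 mM DMSO stocks, were acoustically dispensed into modified Tris buffer. Inhibition of recombinant human His6-USP1/His6-UAF1 was read by fluorescence from cleavage of Ub-Rho110 substrate.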

MDA-MB-436 = experiment: CTG experiment for cell viability (CellTiter-Glo, 96-well plate, 7 days); type: cell-based; conditions: Homo sapiens, MDA-MB-436, 168 h, MDA-MB-436 cells, 7 days culture with compound
Protocol: Test Example 2: CTG experiment for cell viability
• 1. Object: to screen USP1 inhibitors by a CTG assay, using a 96-well plate. • 2. Materials: • The cells used were MDA-MB-436 (manufacturer: Nanjing Cobioer Biotechnology Co., Ltd.) and cultured in DMEM medium, • CTG (CellTiter-Glo® Luminescent Cell Viability Assay kit) (Promega, Cat. No.: G7572), • 96-well plate (Corning, Cat. No.: 3610). • 3. Compounds: all compounds were dissolved in 100% DMSO to obtain 50 mM stock solutions. • 4. Experimental method: • ① Plating: The cells to be tested were spread into a 96-well plate at a certain density, with 200 µL per well, and 200 µL of cell medium was added to the blank wells. […] The cell plate with the compounds was placed in an incubator at 37°C, and further cultured for 7 days prior to detection. • ④ Assay: The substrate and the buffer of CTG kit were mixed evenly. The cell plate with the compounds in Step ③ was taken out from the incubator, and left at room temperature to equilibrate for 30 minutes. The medium containing the compounds was removed from the cell plate, 100 µL of PBS and 50 µL of CTG reagent were added to each well, shaken and mixed for 3 minutes, and then incubated for 10 minutes at room temperature. The plate was read by a BIotek microplate-reader, with a parameter set to 567 CPM. • 5. Curve fitting
It was the same as that for the enzyme.

| SMILES | IC50 [1] [nM] | IC50 (MDA-MB-436) [nM] |
| --- | --- | --- |
| COc1ncnc(C2CC2)c1-c1ncc(CO)c(NCc2ccc(-c3nc(C(F)(F)F)cn3C(C)C)cc2)n1 [Example 137, (4'-Cyclopropyl-4-((4-(1-isopropyl-4-(trifluoromethyl)-1H-imidazol-2-yl)benzyl)amino)-6'-methoxy-[2,5'-bipyrimidin]-5-yl)methanol] | 24 | 216 |
| COc1cnc(-c2ccccc2C(C)C)nc1N(C)Cc1ccc(-c2nc(C(F)(F)F)cn2C)cc1 [Example 3, 2-(2-Isopropylphenyl)-5-methoxy-N-methyl-N-(4-(1-methyl-4-(trifluoromethyl)-1H-imidazol-2-yl)benzyl)pyrimidin-4-amine] | 2.8 | 6.4 |
| COc1cnc(-c2ccccc2C(C)C)nc1NCc1ccc(-c2nc(C(F)(F)F)cn2C)cc1 [Example 4, 2-(2-Isopropylphenyl)-5-methoxy-N-(4-(1-methyl-4-(trifluoromethyl)-1H-imidazol-2-yl)benzyl)pyrimidin-4-amine] | 1.2 | 0.3 |
| COc1cnc(-c2ccccc2C(C)C)nc1N(C)CC1CCC(c2ccccn2)CC1 (stereo not shown) [Example 61, 2-(2-isopropylphenyl)-5-methoxy-N-methyl-N-((4-(pyridin-2-yl)cyclohexyl)methyl)pyrimidin-4-amine] | 11 | 813 |
| COc1cnc(-c2c(OC)ncnc2C2CC2)nc1NCc1ccc(-c2ccccn2)cc1 [Example 94, 4'-Cyclopropyl-5,6'-dimethoxy-N-(4-(pyridin-2-yl)benzyl)-[2,5'-bipyrimidin]-4-amine] | 6.5 | 275 |
| COc1cnc(-c2c(OC)ncnc2C2CC2)nc1N(C)Cc1ccc(-c2ccccn2)cc1 [Example 19, 4'-Cyclopropyl-5,6'-dimethoxy-N-methyl-N-(4-(pyridin-2-yl)benzyl)-[2,5'-bipyrimidin]-4-amine] | 24 | 1.2 |
| COc1cnc(-c2ccccc2C(C)C)nc1NCc1ccc(-c2ccccn2)cc1 [Example 64, 2-(2-Isopropylphenyl)-5-methoxy-N-(4-(pyridin-2-yl)benzyl)pyrimidin-4-amine] | 3.7 | 6.3 |
| [2H]C([2H])([2H])N(Cc1ccc(-c2nc(C(F)(F)F)cn2C2CC2)cc1)c1nc(-c2c(OC)ncnc2C2CC2)ncc1F [Example 128, 4'-Cyclopropyl-N-(4-(1-cyclopropyl-4-(trifluoromethyl)-1H-imidazol-2-yl)benzyl)-5-fluoro-6'-methoxy-N-(methyl-d3)-[2,5'-bipyrimidin]-4-amine] | 2.6 | 5.7 |
| COc1cc(-c2nc(C(F)(F)F)cn2C)ccc1CNc1nc(-c2ccccc2C(C)C)nc2ccoc12 [Example 81, 2-(2-Isopropylphenyl)-N-(2-methoxy-4-(1-methyl-4-(trifluoromethyl)-1H-imidazol-2-yl)benzyl)furo[3,2-d]pyrimidin-4-amine] | 3.7 | 66.1 |
| COc1cnc(-c2c(OC)ncnc2C2CC2)nc1N(C)CC1CCN(c2nc(C(F)(F)F)cn2C)CC1 [Example 92, 4'-Cyclopropyl-5,6'-dimethoxy-N-methyl-N-((1-(1-methyl-4-(trifluoromethyl)-1 H-imidazol-2-yl)piperidin-4-yl)methyl)-[2,5'-bipyrimidin]-4-amine] | 3.3 | 27.3 |
| COc1cc(CNc2nc(-c3c(OC)ncnc3C3CC3)ncc2OC)ccc1-n1nc(C(F)(F)F)cc1C [Example 103, 4'-Cyclopropyl-5,6'-dimethoxy-N-(3-methoxy-4-(5-methyl-3-(trifluoromethyl)-1H-pyrazol-1-yl)benzyl)-[2,5'-bipyrimidin]-4-amine] | 10 | 141 |
| COc1cnc(-c2c(OC)ncnc2C2CC2)nc1N(Cc1ccc(-c2nc(C(F)(F)F)cn2C)cc1)OC [Example 142, N-(4'-Cyclopropyl-5,6'-dimethoxy-[2,5'-bipyrimidin]-4-yl)-O-methyl-N-(4-(1-methyl-4-(trifluoromethyl)-1H-imidazol-2-yl)benzyl)hydroxylamine] | 25 | 50 |
| [2H]C([2H])([2H])N(Cc1ccc(-c2nc(C(F)(F)F)cn2C(C)C)cc1)c1nc(-c2c(OC)ncnc2C2CC2)ncc1F [Example 129, 4'-Cyclopropyl-5-fluoro-N-(4-(1-isopropyl-4-(trifluoromethyl)-1H-imidazol-2-yl)benzyl)-6'-methoxy-N-(methyl-d3)-[2,5'-bipyrimidin]-4-amine] | 9 | 12.6 |
| COc1cc(-n2nc(C(F)(F)F)cc2C)ccc1CNc1nc(-c2ccccc2C(C)C)nc2ccoc12 [Example 83, 2-(2-Isopropylphenyl)-N-(2-methoxy-4-(5-methyl-3-(trifluoromethyl)-1H-pyrazol-1-yl)benzyl)furo[3,2-d]pyrimidin-4-amine] | 4.4 | 99.1 |
| COc1ncnc(C2CC2)c1-c1ncc(F)c(N(C)Cc2ccc(-c3nc(C(F)(F)F)cn3C(C)C)cc2)n1 [Example 127, 4'-Cyclopropyl-5-fluoro-N-(4-(1-isopropyl-4-(trifluoromethyl)-1H-imidazol-2-yl)benzyl)-6'-methoxy-N-methyl-[2,5'-bipyrimidin]-4-amine] | 4.2 | 12.2 |
| Cc1cc(C(F)(F)F)nn1-c1ccc(CN2C(=O)COc3cnc(-c4ccccc4C(C)C)nc32)cc1 [Example 15, 2-(2-Isopropylphenyl)-8-(4-(5-methyl-3-(trifluoromethyl)-1H-pyrazol-1-yl)benzyl)-6H-pyrimido[5,4-b][1,4]oxazin-7(8H)-one] | 6.8 | 301 |
| CC(C)c1ccccc1-c1ncc(Cl)c(NCc2ccc(-c3nc(C(F)(F)F)cn3C)cc2)n1 [Example 38, 5-Chloro-2-(2-isopropylphenyl)-N-(4-(1-methyl-4-(trifluoromethyl)-1H-imidazol-2-yl)benzyl)pyrimidin-4-amine] | 1.1 | 13.7 |
| CCOCCOc1ccc(CNc2nc(-c3c(OC)ncnc3C3CC3)ncc2OC)cc1 [Example 99, 4'-Cyclopropyl-N-(4-(2-ethoxyethoxy)benzyl)-5,6'-dimethoxy-[2,5'-bipyrimidin]-4-amine] | 15.1 | 445 |

Results, then the compound that gave them:

| IC50 [1] [nM] | IC50 (MDA-MB-436) [nM] | SMILES |
| --- | --- | --- |
| 6.9 | 12.1 | COc1cnc(-c2c(OC)ncnc2C2CC2)nc1N(C#N)CC12CCC(c3nc(C(F)(F)F)cn3C)(CC1)CC2 [Example S43] |
| 4.9 | 2.3 | [2H]C([2H])([2H])N(CC12CCC(c3nc(C(F)(F)F)cn3C)(CC1)CC2)c1nc(-c2c(OC)ncnc2C2CC2)ncc1OC [Example S4, 4'-Cyclopropyl-5,6'-dimethoxy-N-(methyl-d3)-N-((4-(1-methyl-4-(trifluoromethyl)-1H-imidazol-2-yl)bicyclo[2.2.2]oct-1-yl)methyl)-[2,5'-bipyrimidin]-4-amine] |
| 15 | 338 | COc1cnc(-c2c(OC)ncnc2OC)nc1NC[C@H]1CC[C@H](c2nc(C(F)(F)F)cn2C2CC2)CC1 [Example S29, N-(((1R,4R)-4-(1-cyclopropyl-4-(trifluoromethyl)-1H-imidazol-2-yl)cyclohexyl)methyl)-4',5,6'-trimethoxy-[2,5'-bipyrimidin]-4-amine] |
| 1.4 | 2.7 | COc1cnc(-c2c(OC)ncnc2C2CC2)nc1NCC12C3C4C1C1C2C3C41c1nc(C(F)(F)F)cn1C1CC1 (stereo not shown) [Example 216, 4'-cyclopropyl-N-((4-(1-cyclopropyl-4-(trifluoromethyl)-1H-imidazol-2-yl)cuban-1-yl)methyl)-5,6'-dimethoxy-[2,5'-bipyrimidin]-4-amine] |
| 13 | 60.8 | COc1cnc(-c2c(Cl)cnn2C(C)C)nc1N(C)CC12CCC(c3nc(C(F)(F)F)cn3C(C)C)(CC1)OC2 [Example S13, 2-(4-Chloro-1-isopropyl-1H-pyrazol-5-yl)-N-((1-(1-isopropyl-4-(trifluoromethyl)-1H-imidazol-2-yl)-2-oxabicyclo[2.2.2]oct-4-yl)methyl)-5-methoxy-N-methylpyrimidin-4-amine] |
| 2.1 | 41.4 | CC(C)n1ncc(Cl)c1-c1nc(NCc2ccc(-c3ccccn3)cc2)c2occc2n1 [Example 166, 2-(4-Chloro-1-isopropyl-1H-pyrazol-5-yl)-N-(4-(pyridin-2-yl)benzyl)furo[3,2-d]pyrimidin-4-amine] |
| 4.6 | 4.5 | [2H]C([2H])([2H])N(C[C@H]1CC[C@H](c2nc(C(F)(F)F)cn2C)CC1)c1nc(-c2c(OC)ncnc2C2CC2)ncc1OC [Example S22, 4'-Cyclopropyl-5,6'-dimethoxy-N-(methyl-d3)-N-(((1r,4r)-4-(1-methyl-4-(trifluoromethyl)-1H-imidazol-2-yl)cyclohexyl)methyl)-[2,5'-bipyrimidin]-4-amine] |
| 2.9 | 23.3 | COc1cnc(-c2cccnc2C(C)C)nc1NCc1ccc(-c2nc(C(F)(F)F)cn2C)cc1 [Example 157, 2-(2-Isopropylpyridin-3-yl)-5-methoxy-N-(4-(1-methyl-4-(trifluoromethyl)-1H-imidazol-2-yl)benzyl)pyrimidin-4-amine] |
